These are literature values, as cited in patent US8551962B2, “High dosage doramectin formulation” (Zoetis LLC, priority 2009, dated 2013).

For this series the following is noted: beef cattle; single dose of 200 μg/Kg of body weight.

On to `CO[C@H]1C[C@H](O[C@H]2[C@H](C)O[C@@H](O[C@@H]3/C(C)=C/C[C@@H]4C[C@@H](C[C@]5(C=C[C@H](C)[C@@H](C6CCCCC6)O5)O4)OC(=O)[C@@H]4C=C(C)[C@@H](O)[C@H]5OC/C(=C\C=C\[C@@H]3C)[C@]54O)C[C@@H]2OC)O[C@@H](C)[C@@H]1O` [doramectin], for which the withhold time is on record as 35 days.
